Test results reported in US11723886B2, “Targeting ocular diseases with novel APE1/Ref-1 inhibitors” (Indiana University Research and Technology Corporation, priority 2018, dated 2023).

How the values were obtained:
[1] = tested on: laser-induced choroidal neovascularization
Ref-1 = Ref-1 (Homo sapiens, UniProt P27695); experiment: Electrophoretic mobility shift assay (redox EMSA), Ref-1-induced AP-1 DNA binding; type: biochemical; conditions: 30 min pre-incubation with purified Ref-1, read-out: IC50 for redox EMSA inhibition
Chain of Ref-1 (P27695 whole entry): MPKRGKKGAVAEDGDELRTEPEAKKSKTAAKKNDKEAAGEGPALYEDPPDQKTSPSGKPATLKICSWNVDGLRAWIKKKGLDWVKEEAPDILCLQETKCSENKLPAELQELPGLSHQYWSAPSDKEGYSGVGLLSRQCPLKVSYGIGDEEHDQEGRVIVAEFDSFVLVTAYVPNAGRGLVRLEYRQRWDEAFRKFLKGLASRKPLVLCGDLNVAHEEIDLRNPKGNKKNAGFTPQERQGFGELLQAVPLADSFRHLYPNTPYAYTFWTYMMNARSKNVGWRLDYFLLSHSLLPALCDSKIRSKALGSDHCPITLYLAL
Procedure: Electrophoretic mobility shift assays (EMSA). These assays were performed as previously described (Luo et al., Antioxid Redox Signal 10:18531867 (2008); Kelley et al., Antioxid Redox Signal 14:1387-1401 (2011); Su et al., Biochemistry 50:82-92 (2011); Luo et al., Biochemistry 51:695-705 (2012); Zhang et al., Biochemistry 52:2955-2966 (2013)). […] The EMSA assay was performed using the AP-1 target DNA sequence and AP-1 protein.

[2] = tested on: APE1 repair activity in neurons; conditions: cited from earlier work
HRECs [3] = experiment: TUNEL apoptosis assay in HRECs; type: cell-based, human; conditions: anti-proliferative doses
Procedure: (§1) EdU incorporation, Ki-67 Staining and TUNEL. These assays were carried out as described previously (Basavarajappa et al., PLoS One 9:e95694 (2014); Basavarajappa et al., EMBO Mol Med 9:786-801 (2017)) with the exception of using chamber slides, not coverslips. Briefly, cells (30,000 per well) were seeded on 8-well chamber slides coated with attachment factors and allowed to attach overnight. Cells were treated with the indicated compound concentrations for 17 hours (overnight). To assay proliferation, cells were incubated with EdU in complete media for 8 hours at 37° C. Cells were then fixed in 4% paraformaldehyde for 20 minutes and permeabilized using 0.25% Triton X-100 prepared in PBS. Cells were incubated with a rabbit-specific monoclonal antibody against Ki-67 (D3B5) (#9129; Cell Signaling, Danvers, Mass.) (1:400) overnight at 4° C. Secondary antibody was Alexa Fluor goat anti-rabbit 488 (A11034; Invitrogen, Carlsbad, Calif.) with DAPI counter-stain for nuclear staining. Proliferating cells that incorporated EdU were detected using the Click-iT EdU Imaging kit (Invitrogen, Carlsbad, Calif.). […] The cells were imaged using a Zeiss AxioImager D2 microscope or an LSM 700 confocal microscope and the percentage of positive cells was counted on three low-power (for TUNEL) or high-power (for Ki-67 and EdU) fields per well using ImageJ software.

HRECs [4] = experiment: Propidium iodide cell cycle analysis in HRECs; type: cell-based, human; conditions: high doses, 24 hours
Procedure: Cell cycle analysis. HRECs (2×10^6) were grown in EGM-2 medium. Cells were serum starved in EBM-2 medium overnight, then treated with the indicated concentrations of APX2009 or APX2014 along with DMSO control for 24 hours in complete medium. Cells were washed twice in ice-cold PBS followed by fixation in 66% ethanol solution overnight at 4° C. Fixed cells were again washed twice in ice-cold PBS and the pellets were resuspended in propidium iodide staining solution for 30 minutes at 37° C. (20 μg/mL propidium iodide prepared in 1×PBS containing 0.1% Triton X-100 and 100 μg/mL RNase A). After incubation cells were analyzed using flow cytometry (FACSCalibur, BD Biosciences, San Jose, Calif.). Pulse shape analysis was used to exclude doublets and debris. The single cell population was then assessed by the FL2 area histogram plot using ModFit software (v. 5.0) and cell cycle profiles were generated.

HRECs [5] = experiment: EdU incorporation and Ki-67 staining in HRECs; type: cell-based, human
Procedure: as §1

HIF-regulated genes = experiment: RNA-Seq of HIF-regulated genes in HRECs; type: cell-based, human; conditions: 0.1 and 1 μM, 6 and 24 hours
Procedure: Human retinal endothelial cells (HRECs) (Cell Systems, Inc. Kirkland, Wash.) were plated in 6-well plates and treated with 0.1 μM APX2009, 1 μM APX2009 or DMSO for 6 hours and 24 hours. Cells were washed once after treatment with PBS, collected and frozen. This process was repeated to collect treated cells in 4 different passages. RNA was extracted in 300 μL Trizol (Life Technologies, Carlsbad, Calif.) and flash frozen at −80° C. The SMARTer system (Clontech, Mountain View, Calif.) was used to generate cDNA from cells. The dscDNA quantity and quality was assessed using an Agilent Bioanalyzer (Agilent Technologies, Santa Clara, Calif., USA) with the High Sensitivity DNA Chip. […] The IUSM Genomics Facility prepared libraries using a Nextera kit (Illumina, San Diego, Calif.). DNAs were sequenced using the Illumina HiSeq 4000.

Row | SMILES | fluorescein leakage in lesions (fluorescein angiography) ([1]; 25 mg/kg i.p., Day 14) | intraocular or systemic toxicity in vivo ([1]; i.p. dosing in L-CNV mice) | effect on L-CNV ([1]; i.p., 12.5 mg/kg twice daily for two weeks) | L-CNV on systemic administration (summary statement) [1] | IC50 (Ref-1) | APE1 repair activity in neurons [2] | apoptosis by TUNEL (HRECs [3]) | cell cycle phase distribution (HRECs [4]) | cells going through S phase (Ki-67 staining, EdU incorporation) (HRECs [5]) | expression of HIF regulated genes (RNA-Seq) (HIF-regulated genes)
1 | CCC/C(=C\C1=C(OC)C(=O)c2ccccc2C1=O)C(=O)N(CC)CC [APX2009, (2E)-2-[(3-methoxy-1,4-dioxo-1,4-dihydronaphthalen-2-yl)methylidene]-N,N-diethylpentanamide] | qualitatively less fluorescein leakage | not observed obvious intraocular or systemic toxicity | did not reduce L-CNV | can attenuate L-CNV | 450 nM | can enhance APE1 repair activity | neither compound induced apoptosis | modest increase in cells in G0/G1 phase | reduced the number of cells going through S phase | blocked HIF regulated genes in a concentration dependent manner
2 | CCC/C(=C\C1=C(OC)C(=O)c2ccccc2C1=O)C(=O)NOC [APX2014, (2E)-2-[(3-methoxy-1,4-dioxo-1,4-dihydronapthalen-2-yl)methylidene]-N-methoxypentanamide] | – | – | – | can attenuate L-CNV | 200 nM | – | neither compound induced apoptosis | modest increase in cells in G0/G1 phase | reduced the number of cells going through S phase | –
